# Legend:
# [1] = test system: HFD-induced obese C57BL/6J mice; assay: Fasting blood glucose, IPGTT and insulin resistance in HFD-induced obese mice; type: in vivo; conditions: for insulin resistance index HOMA-IR / fasting insulin concentration (insulin expression): 12 weeks; for insulin resistance index HOMA-IR: compared with the HFD group; for fasting insulin concentration (insulin expression): serum; for fasting blood glucose: since the second week, 16 h fasting; for AUC of IPGTT: week 12, glucose 1.0 g/kg i.p., vs HFD group
# Text: The animals used in the examples are described below. 5-week-old male C57BL/6J mice were purchased from The National Laboratory Animal Center, Taipei, Taiwan and were maintained in a temperature-controlled room on a 12-h light-dark cycle. They were housed with four per cage and had free access to food and drinking water. Mice fed with a standard diet and adapted to the environment for 1 week were subsequently divided randomly into five groups. The ND group (n=8) continued on the same diet, whereas the other four groups (n=8 per group) were switched to the HFD (494 kcal/100 g, 45% energy as fat; TestDiet Inc., USA). Among the four HFD groups, three groups started to receive CX at 10 mg/kg/day (CX10 group), CX at 30 mg/kg/day (CX30 group), and epigallocatechin gallate (EGCG) (Sigma, Inc., USA) at 30 mg/kg/day (EGCG30 group) by oral gavage. EGCG was suspended in 0.5% methylcellulose solution for oral administration. Food consumption and weight gain were measured daily and weekly, respectively. After 12 weeks, all mice were sacrificed. Serum samples, liver tissue, epididymis adipose tissue and feces were harvested for further analysis. The experimental protocol was approved by the Animal Research Committee of the National Yang Ming Chiao Tung University (IACUC no. 1091013), and all procedures followed The Guide for the Care and Use of Laboratory Animals (NIH publication, 85-23, revised 1996) and the guidelines of the Animal Welfare Act, Taiwan. The procedure regarding blood glucose and intraperitoneal glucose tolerance test (IPGTT) is as follows. After a 16 h overnight fasting period, whole-blood glucose was measured with a glucose analyzer ([…], Taiwan). An enzymatic assay was used to measure the serum insulin concentration (Cisbio, USA). Intraperitoneal glucose tolerance tests (IPGTTs) were performed in all mice 12 weeks after the start of the study. Mice fasted for 16 h were injected intraperitoneally with glucose 1.0 g/kg body weight, blood glucose levels were measured in tail vain blood at 0, 30, 60, 90, 120 and 150 min.
# [2] = test system: HFD-induced obese C57BL/6J mice; assay: Liver fat deposition and liver damage markers (NAFLD) in HFD-induced obese mice; type: in vivo; conditions: for liver weight / ratio of liver weight and body weight / lipid accumulation in the liver tissue (H&E and Oil Red O staining) / hepatic cholesterol (TC) level / hepatic triglyceride (TG) level: HFD mice, 12 weeks oral; for liver weight: CX 10 and 30 mg/kg/day, EGCG 30 mg/kg/day; for ratio of liver weight and body weight: among all groups; for lipid accumulation in the liver tissue (H&E and Oil Red O staining): normal morphology of liver cells maintained; for hepatic cholesterol (TC) level / hepatic triglyceride (TG) level: vs HFD; for serum albumin (ALB) level: compared with ND group, HFD group significantly higher
# Text: The animals used in the examples are described below. 5-week-old male C57BL/6J mice were purchased from The National Laboratory Animal Center, Taipei, Taiwan and were maintained in a temperature-controlled room on a 12-h light-dark cycle. They were housed with four per cage and had free access to food and drinking water. Mice fed with a standard diet and adapted to the environment for 1 week were subsequently divided randomly into five groups. The ND group (n=8) continued on the same diet, whereas the other four groups (n=8 per group) were switched to the HFD (494 kcal/100 g, 45% energy as fat; TestDiet Inc., USA). Among the four HFD groups, three groups started to receive CX at 10 mg/kg/day (CX10 group), CX at 30 mg/kg/day (CX30 group), and epigallocatechin gallate (EGCG) (Sigma, Inc., USA) at 30 mg/kg/day (EGCG30 group) by oral gavage. EGCG was suspended in 0.5% methylcellulose solution for oral administration. Food consumption and weight gain were measured daily and weekly, respectively. After 12 weeks, all mice were sacrificed. Serum samples, liver tissue, epididymis adipose tissue and feces were harvested for further analysis. The experimental protocol was approved by the Animal Research Committee of the National Yang Ming Chiao Tung University (IACUC no. 1091013), and all procedures followed The Guide for the Care and Use of Laboratory Animals (NIH publication, 85-23, revised 1996) and the guidelines of the Animal Welfare Act, Taiwan. The procedure regarding immunohistochemical tissue characterization is as follows. During dissection of the mice, epididymis adipose tissue and liver were isolated, weighed, and subsequently fixed in 10% paraformaldehyde in PBS. After overnight fixation, tissues were embedded in paraffin for hematoxylin and eosin (H&E) staining. All specimens were observed microscopically (Carl Zeiss Inc., Germany) at 200× magnification. […] The procedure regarding biochemical characterization is as follows. The serum triglyceride (TG), total cholesterol (TC), high-density lipoprotein-cholesterol (HDL-C), glutamic oxaloacetic transaminase (GOT), glutamic pyruvic transaminase (GPT), albumin (ALB), uric acid (UA), and creatinine (CRE) levels were measured using enzymatic assay kits with a FUJI DRI-CHEM analyzer (Fujifilm, Tokyo, Japan). The LDL-C level was calculated as [(TC)-(HDL-C)-(TG/5)]. The procedure regarding triglyceride and cholesterol analysis of liver tissue is as follows. For triglyceride and cholesterol determinations, mouse liver tissues were extracted and analyzed using triglyceride and cholesterol quantitation assay kits (Abcam, UK), respectively, according to the manufacturer's instruction.
# [3] = test system: adenosine 5′-monophosphate-activated protein kinase (AMPK); assay: Western blot analysis, AMPK phosphorylation in OA-induced HuS-E/2 cells; type: cell-based, human; conditions: CX at 100-400 μM, 0.1 mM OA-induced HuS-E/2 cells
# Text: The procedure regarding Western blot analysis is as follows. For western blot analysis, an equal amount of protein from each sample was resolved by sodium dodecyl sulfate polyacrylamide gel electrophoresis (SDS-PAGE) and then transferred to polyvinylidene fluoride (PVDF) membranes. Primary antibodies against AMPK (Cat. GTX103487), adipose triglyceride lipase (ATGL) (Cat. GTX109941), carnitine palmitoyl-transferase 1 (CPT1) (Cat. GTX114337), and β-actin (Cat. GTX109639) were from GeneTex (Taiwan), and those against pAMPK (Cat. AP0432), phospho acetyl-CoA carboxylase (pACC) (Cat. AP0298), ACC (Cat. A15606), and fatty acid synthase (FAS) (Cat. A21182) was from ABclonal (China). Horseradish peroxidase (HRP)-conjugated secondary antibodies were from Jackson ImmunoResearch Laboratories, Inc., USA. WesternBright® ECL kits (Advansta Inc., USA) were used for protein visualization. Levels of protein expression were quantified by densitometric analyses.
# [4] = CX at both supplementations (10 and 30 mg/kg/day), 12 weeks
structure (smiles),measurement,setting,value
"COc1ccc2[nH]c(=O)oc2c1 [CX, 6-methoxybenzoxazolinone]",insulin resistance index HOMA-IR,[1]; 10 mg/kg/day oral,significantly lower
same,fasting insulin concentration (insulin expression),[1]; 10 mg/kg/day oral,significantly lower than that of the HFD group
same,fasting blood glucose,[1]; 10 mg/kg/day oral,stable and significantly lower than the HFD group
same,AUC of IPGTT,[1]; 10 mg/kg/day oral,significantly decreased
same,insulin resistance index HOMA-IR,[1]; 30 mg/kg/day oral,significantly lower
same,fasting insulin concentration (insulin expression),[1]; 30 mg/kg/day oral,significantly lower than that of the HFD group
same,fasting blood glucose,[1]; 30 mg/kg/day oral,stable and significantly lower than the HFD group
same,AUC of IPGTT,[1]; 30 mg/kg/day oral,significantly decreased
same,serum GOT (HFD-induced high level),[2]; [4],significantly prevented
same,serum GPT (HFD-induced high level),[2]; [4],significantly prevented
same,liver weight,[2],significantly lower than HFD group
same,ratio of liver weight and body weight,[2],did not differ among all groups
same,lipid accumulation in the liver tissue (H&E and Oil Red O staining),[2],greatly ameliorated
same,hepatic cholesterol (TC) level,[2],much lower
same,hepatic triglyceride (TG) level,[2],much lower
same,serum albumin (ALB) level,[2],no difference
same,AMPK phosphorylation,[3],marked increase
"O=C(O[C@@H]1Cc2c(O)cc(O)cc2O[C@@H]1c1cc(O)c(O)c(O)c1)c1cc(O)c(O)c(O)c1 [EGCG, epigallocatechin gallate, reference compound]",fasting blood glucose,[1]; 30 mg/kg/day oral,stable and significantly lower than the HFD group
same,liver weight,[2],significantly lower than HFD group
same,ratio of liver weight and body weight,[2],did not differ among all groups
same,lipid accumulation in the liver tissue (H&E and Oil Red O staining),[2],greatly ameliorated
same,hepatic cholesterol (TC) level,[2],much lower
same,hepatic triglyceride (TG) level,[2],much lower
same,serum albumin (ALB) level,[2],no difference
